Target: T1, 5-hydroxytryptamine receptor 2C (Homo sapiens, UniProt P28335)
T1 sequence (P28335 whole entry): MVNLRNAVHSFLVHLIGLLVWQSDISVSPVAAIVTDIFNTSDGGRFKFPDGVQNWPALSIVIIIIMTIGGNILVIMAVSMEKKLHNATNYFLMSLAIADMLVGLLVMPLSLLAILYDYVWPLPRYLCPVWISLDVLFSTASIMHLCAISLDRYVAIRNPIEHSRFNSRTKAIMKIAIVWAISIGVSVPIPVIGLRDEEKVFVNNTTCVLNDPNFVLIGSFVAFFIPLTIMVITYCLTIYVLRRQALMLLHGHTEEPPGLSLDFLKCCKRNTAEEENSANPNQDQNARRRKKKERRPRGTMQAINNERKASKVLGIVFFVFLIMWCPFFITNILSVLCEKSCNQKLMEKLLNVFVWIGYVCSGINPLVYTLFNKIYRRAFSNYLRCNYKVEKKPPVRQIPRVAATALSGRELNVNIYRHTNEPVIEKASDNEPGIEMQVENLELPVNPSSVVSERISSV
Test: DRUGMATRIX: Serotonin (5-Hydroxytryptamine) 5-HT2C radioligand binding (ligand: [3H] Mesulergine)
Type: cell membranes, CHO-K1, Membrane
Conditions: cho-k1; Not Active = under 50% inhibition at 10 µM

SMILES	IC50
O=C(O)c1ccccc1 [BENZOIC ACID]	Not Active
CN(CCOc1ccc(C[C@H](Nc2ccccc2C(=O)c2ccccc2)C(=O)O)cc1)c1ccccn1	Not Active
O=c1[nH]cnc2c1ncn2[C@H]1CC[C@@H](CO)O1 [DIDANOSINE]	Not Active
CC(C)(c1ccc(O)cc1)c1ccc(O)cc1 [BISPHENOL A]	Not Active
ClC1=C(Cl)[C@]2(Cl)[C@@H]3[C@@H]4C[C@@H]([C@H]5O[C@@H]45)[C@@H]3[C@@]1(Cl)C2(Cl)Cl [DIELDRIN]	Not Active
c1ccc(Cn2ccnc2)cc1	Not Active
C[C@]12CC[C@@H](O)C[C@@H]1CC[C@@H]1[C@@H]2CC[C@]2(C)C(=O)CC[C@@H]12 [ANDROSTERONE]	Not Active
CC12CCC(CC1)C(C)(C)O2 [EUCALYPTOL]	Not Active
Nc1nc(N)c2nc(CNc3ccc(C(=O)N[C@@H](CCC(=O)O)C(=O)O)cc3)cnc2n1 [AMINOPTERIN]	Not Active
Nc1ccc(Cc2ccc(N)cc2)cc1	Not Active
CCN1CCN(c2cc3c(cc2F)c(=O)c(C(=O)O)cn3C2CC2)CC1 [ENROFLOXACIN]	Not Active
CC(C)Cc1ccc([C@H](C)C(=O)O)cc1 [DEXIBUPROFEN]	Not Active

Target: T2, Vasoactive intestinal polypeptide receptor 1 (Homo sapiens, UniProt P32241); also: in other assays of this panel Not Active means under 50% inhibition at 10 µM
T2 sequence (P32241 whole entry): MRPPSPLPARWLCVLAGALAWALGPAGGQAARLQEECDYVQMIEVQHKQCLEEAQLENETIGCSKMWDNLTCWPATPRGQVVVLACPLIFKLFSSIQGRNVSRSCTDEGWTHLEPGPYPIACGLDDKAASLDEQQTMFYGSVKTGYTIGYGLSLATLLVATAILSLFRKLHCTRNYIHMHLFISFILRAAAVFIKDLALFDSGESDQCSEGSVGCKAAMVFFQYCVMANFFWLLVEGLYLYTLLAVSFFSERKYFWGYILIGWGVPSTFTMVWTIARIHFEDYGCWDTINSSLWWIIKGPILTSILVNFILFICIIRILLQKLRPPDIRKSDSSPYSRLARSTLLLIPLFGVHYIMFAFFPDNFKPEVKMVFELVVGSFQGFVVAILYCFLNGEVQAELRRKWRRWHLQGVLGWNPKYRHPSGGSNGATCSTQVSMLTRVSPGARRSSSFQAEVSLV
Type: cell membranes, Membrane
Conditions: ht-29

SMILES	IC50
O=C(O)c1ccccc1 [BENZOIC ACID]	Not Active
CN(CCOc1ccc(C[C@H](Nc2ccccc2C(=O)c2ccccc2)C(=O)O)cc1)c1ccccn1	Not Active
O=c1[nH]cnc2c1ncn2[C@H]1CC[C@@H](CO)O1 [DIDANOSINE]	Not Active
CC(C)(c1ccc(O)cc1)c1ccc(O)cc1 [BISPHENOL A]	Not Active
ClC1=C(Cl)[C@]2(Cl)[C@@H]3[C@@H]4C[C@@H]([C@H]5O[C@@H]45)[C@@H]3[C@@]1(Cl)C2(Cl)Cl [DIELDRIN]	Not Active
c1ccc(Cn2ccnc2)cc1	Not Active
C[C@]12CC[C@@H](O)C[C@@H]1CC[C@@H]1[C@@H]2CC[C@]2(C)C(=O)CC[C@@H]12 [ANDROSTERONE]	Not Active
CC12CCC(CC1)C(C)(C)O2 [EUCALYPTOL]	Not Active
Nc1nc(N)c2nc(CNc3ccc(C(=O)N[C@@H](CCC(=O)O)C(=O)O)cc3)cnc2n1 [AMINOPTERIN]	Not Active
Nc1ccc(Cc2ccc(N)cc2)cc1	Not Active
CCN1CCN(c2cc3c(cc2F)c(=O)c(C(=O)O)cn3C2CC2)CC1 [ENROFLOXACIN]	Not Active
CC(C)Cc1ccc([C@H](C)C(=O)O)cc1 [DEXIBUPROFEN]	Not Active

Target: T3, Alpha-1B adrenergic receptor (Rattus norvegicus, UniProt P15823)
T3 sequence (P15823 whole entry): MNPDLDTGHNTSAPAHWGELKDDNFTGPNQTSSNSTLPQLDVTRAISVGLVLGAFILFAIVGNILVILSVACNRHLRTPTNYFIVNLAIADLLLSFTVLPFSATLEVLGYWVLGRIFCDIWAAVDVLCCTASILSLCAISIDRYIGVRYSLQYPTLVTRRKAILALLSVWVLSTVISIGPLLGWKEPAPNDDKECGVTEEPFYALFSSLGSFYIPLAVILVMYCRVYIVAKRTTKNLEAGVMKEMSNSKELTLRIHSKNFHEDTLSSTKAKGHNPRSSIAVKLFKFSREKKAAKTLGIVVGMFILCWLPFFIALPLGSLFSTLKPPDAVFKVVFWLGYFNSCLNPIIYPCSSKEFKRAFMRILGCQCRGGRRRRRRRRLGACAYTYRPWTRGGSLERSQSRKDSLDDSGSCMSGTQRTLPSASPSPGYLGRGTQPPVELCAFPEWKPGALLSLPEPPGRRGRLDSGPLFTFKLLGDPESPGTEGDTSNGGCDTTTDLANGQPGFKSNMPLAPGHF
Test: DRUGMATRIX: Alpha-1B adrenergic receptor radioligand binding (ligand: prazosin)
Type: cell membranes, Wistar, Liver, Membrane
Conditions: Not Active = under 50% inhibition at 10 µM

SMILES	IC50
O=C(O)c1ccccc1 [BENZOIC ACID]	Not Active
CN(CCOc1ccc(C[C@H](Nc2ccccc2C(=O)c2ccccc2)C(=O)O)cc1)c1ccccn1	Not Active
O=c1[nH]cnc2c1ncn2[C@H]1CC[C@@H](CO)O1 [DIDANOSINE]	Not Active
CC(C)(c1ccc(O)cc1)c1ccc(O)cc1 [BISPHENOL A]	Not Active
ClC1=C(Cl)[C@]2(Cl)[C@@H]3[C@@H]4C[C@@H]([C@H]5O[C@@H]45)[C@@H]3[C@@]1(Cl)C2(Cl)Cl [DIELDRIN]	Not Active
c1ccc(Cn2ccnc2)cc1	Not Active
C[C@]12CC[C@@H](O)C[C@@H]1CC[C@@H]1[C@@H]2CC[C@]2(C)C(=O)CC[C@@H]12 [ANDROSTERONE]	Not Active
CC12CCC(CC1)C(C)(C)O2 [EUCALYPTOL]	Not Active
Nc1nc(N)c2nc(CNc3ccc(C(=O)N[C@@H](CCC(=O)O)C(=O)O)cc3)cnc2n1 [AMINOPTERIN]	Not Active
Nc1ccc(Cc2ccc(N)cc2)cc1	Not Active
CCN1CCN(c2cc3c(cc2F)c(=O)c(C(=O)O)cn3C2CC2)CC1 [ENROFLOXACIN]	Not Active
CC(C)Cc1ccc([C@H](C)C(=O)O)cc1 [DEXIBUPROFEN]	Not Active

Target: Cytochrome P450 2E1 (Homo sapiens, UniProt P05181); also: in other assays of this panel Not Active means under 50% inhibition at 10 µM
Sequence (P05181 whole entry): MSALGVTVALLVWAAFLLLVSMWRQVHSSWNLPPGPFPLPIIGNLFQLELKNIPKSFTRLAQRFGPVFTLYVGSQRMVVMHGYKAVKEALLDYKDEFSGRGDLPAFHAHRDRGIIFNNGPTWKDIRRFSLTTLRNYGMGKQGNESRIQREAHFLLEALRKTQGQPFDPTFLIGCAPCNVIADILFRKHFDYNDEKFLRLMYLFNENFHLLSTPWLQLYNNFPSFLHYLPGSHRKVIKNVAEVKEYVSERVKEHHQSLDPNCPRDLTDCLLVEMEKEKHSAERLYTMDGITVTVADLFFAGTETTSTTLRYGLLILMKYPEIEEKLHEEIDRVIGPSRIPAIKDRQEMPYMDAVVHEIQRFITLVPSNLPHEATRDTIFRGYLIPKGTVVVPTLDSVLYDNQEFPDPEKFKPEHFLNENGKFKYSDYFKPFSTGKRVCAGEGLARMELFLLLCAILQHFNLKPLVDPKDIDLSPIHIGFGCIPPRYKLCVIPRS
Conditions: bti-tn-5b1-4

SMILES	IC50	Ki
O=C(O)c1ccccc1 [BENZOIC ACID]	Not Active	Not Active
CN(CCOc1ccc(C[C@H](Nc2ccccc2C(=O)c2ccccc2)C(=O)O)cc1)c1ccccn1	Not Active	Not Active
O=c1[nH]cnc2c1ncn2[C@H]1CC[C@@H](CO)O1 [DIDANOSINE]	Not Active	Not Active
CC(C)(c1ccc(O)cc1)c1ccc(O)cc1 [BISPHENOL A]	Not Active	Not Active
ClC1=C(Cl)[C@]2(Cl)[C@@H]3[C@@H]4C[C@@H]([C@H]5O[C@@H]45)[C@@H]3[C@@]1(Cl)C2(Cl)Cl [DIELDRIN]	Not Active	Not Active
c1ccc(Cn2ccnc2)cc1	Not Active	Not Active
C[C@]12CC[C@@H](O)C[C@@H]1CC[C@@H]1[C@@H]2CC[C@]2(C)C(=O)CC[C@@H]12 [ANDROSTERONE]	Not Active	Not Active
CC12CCC(CC1)C(C)(C)O2 [EUCALYPTOL]	Not Active	Not Active
Nc1nc(N)c2nc(CNc3ccc(C(=O)N[C@@H](CCC(=O)O)C(=O)O)cc3)cnc2n1 [AMINOPTERIN]	Not Active	Not Active
Nc1ccc(Cc2ccc(N)cc2)cc1	Not Active	Not Active
CCN1CCN(c2cc3c(cc2F)c(=O)c(C(=O)O)cn3C2CC2)CC1 [ENROFLOXACIN]	Not Active	Not Active
CC(C)Cc1ccc([C@H](C)C(=O)O)cc1 [DEXIBUPROFEN]	Not Active	Not Active

Target: T4, Endothelin-1 receptor (Homo sapiens, UniProt P25101); also: in other assays of this panel Not Active means under 50% inhibition at 10 µM
T4 sequence (P25101 whole entry): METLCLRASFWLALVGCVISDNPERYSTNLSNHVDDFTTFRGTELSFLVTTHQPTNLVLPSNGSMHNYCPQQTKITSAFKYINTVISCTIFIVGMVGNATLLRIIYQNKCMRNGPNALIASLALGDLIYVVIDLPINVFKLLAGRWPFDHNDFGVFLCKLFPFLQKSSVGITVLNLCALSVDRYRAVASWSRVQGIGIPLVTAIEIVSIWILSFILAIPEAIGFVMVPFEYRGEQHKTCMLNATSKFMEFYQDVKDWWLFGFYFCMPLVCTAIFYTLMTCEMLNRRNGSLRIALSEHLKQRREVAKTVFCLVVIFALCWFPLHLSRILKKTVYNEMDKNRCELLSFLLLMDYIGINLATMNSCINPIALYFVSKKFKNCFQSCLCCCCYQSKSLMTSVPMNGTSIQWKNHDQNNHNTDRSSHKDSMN
Type: cell membranes, Membrane
Conditions: cho-k1

SMILES	IC50
O=C(O)c1ccccc1 [BENZOIC ACID]	Not Active
CN(CCOc1ccc(C[C@H](Nc2ccccc2C(=O)c2ccccc2)C(=O)O)cc1)c1ccccn1	Not Active
O=c1[nH]cnc2c1ncn2[C@H]1CC[C@@H](CO)O1 [DIDANOSINE]	Not Active
CC(C)(c1ccc(O)cc1)c1ccc(O)cc1 [BISPHENOL A]	Not Active
ClC1=C(Cl)[C@]2(Cl)[C@@H]3[C@@H]4C[C@@H]([C@H]5O[C@@H]45)[C@@H]3[C@@]1(Cl)C2(Cl)Cl [DIELDRIN]	Not Active
c1ccc(Cn2ccnc2)cc1	Not Active
C[C@]12CC[C@@H](O)C[C@@H]1CC[C@@H]1[C@@H]2CC[C@]2(C)C(=O)CC[C@@H]12 [ANDROSTERONE]	Not Active
CC12CCC(CC1)C(C)(C)O2 [EUCALYPTOL]	Not Active
Nc1nc(N)c2nc(CNc3ccc(C(=O)N[C@@H](CCC(=O)O)C(=O)O)cc3)cnc2n1 [AMINOPTERIN]	Not Active
Nc1ccc(Cc2ccc(N)cc2)cc1	Not Active
CCN1CCN(c2cc3c(cc2F)c(=O)c(C(=O)O)cn3C2CC2)CC1 [ENROFLOXACIN]	Not Active
CC(C)Cc1ccc([C@H](C)C(=O)O)cc1 [DEXIBUPROFEN]	Not Active

Tested on: not listed separately
Test: DRUGMATRIX: Phosphodiesterase PDE3 enzyme inhibition (substrate: [3H]cAMP + cAMP)
Type: tissue-based, Homo sapiens
Conditions: platelet; Not Active = under 50% inhibition at 10 µM

SMILES	IC50	Ki
O=C(O)c1ccccc1 [BENZOIC ACID]	Not Active	Not Active
O=c1[nH]cnc2c1ncn2[C@H]1CC[C@@H](CO)O1 [DIDANOSINE]	Not Active	Not Active
CC(C)(c1ccc(O)cc1)c1ccc(O)cc1 [BISPHENOL A]	Not Active	Not Active
ClC1=C(Cl)[C@]2(Cl)[C@@H]3[C@@H]4C[C@@H]([C@H]5O[C@@H]45)[C@@H]3[C@@]1(Cl)C2(Cl)Cl [DIELDRIN]	Not Active	Not Active
c1ccc(Cn2ccnc2)cc1	Not Active	Not Active
C[C@]12CC[C@@H](O)C[C@@H]1CC[C@@H]1[C@@H]2CC[C@]2(C)C(=O)CC[C@@H]12 [ANDROSTERONE]	Not Active	Not Active
CC12CCC(CC1)C(C)(C)O2 [EUCALYPTOL]	Not Active	Not Active
Nc1nc(N)c2nc(CNc3ccc(C(=O)N[C@@H](CCC(=O)O)C(=O)O)cc3)cnc2n1 [AMINOPTERIN]	Not Active	Not Active
Nc1ccc(Cc2ccc(N)cc2)cc1	Not Active	Not Active
CCN1CCN(c2cc3c(cc2F)c(=O)c(C(=O)O)cn3C2CC2)CC1 [ENROFLOXACIN]	Not Active	Not Active
CC(C)Cc1ccc([C@H](C)C(=O)O)cc1 [DEXIBUPROFEN]	Not Active	Not Active

Same assay, conditions: platelet; Not Active = under 50% inhibition at 10 µM; read-out: IC50

SMILES	IC50
CN(CCOc1ccc(C[C@H](Nc2ccccc2C(=O)c2ccccc2)C(=O)O)cc1)c1ccccn1	19.4 µM
